# Source: patent US20260207603A1, “COMBINATION THERAPY FOR CANCER TREATMENT” (Hoffmann-La Roche Inc., priority 2022, published 2026)
# Assays:
# LS411N xenograft tumors = experiment: in vivo anti-tumor activity on LS411N xenograft tumors (BRAF V600E colorectal model); parameters: species or system BALB/c Nude mice; details: monotherapy PO QD, 20 mpk, 50 mpk or 140 mpk; compared with encorafenib 24 mpk; FIG. 2
# Text: (§1) FIG. 1 illustrates a schematic representation of the study design reported in FIG. 2 to and specifies the dosage regime that was used for treating the different cohorts in a colorectal tumour model bearing LS411N xenografts, according to some embodiments. Both models are CRC models and present the BRAF V600E mutation.
# FIG. 2 […], or of encorafenib at 24 mpk on LS411N xenograft tumors in BALB/c Nude mice (10 mice/cohort), according to some embodiments. Mice were, for example, treated (QD) until day 43 and the graphs express mean tumour volume [mm3] for the different cohorts.
# (§2) FIG. 3 reports in vivo anti-tumor activity of a combination of R07276389 at 140 mpk or of encorafenib at 24 mpk, in each instance with 20 mpk of cetuximab on LS411N xenograft tumors in BALB/c Nude mice (10 mice/cohort), according to some embodiments. Monotherapy controls were, for example, also included and the mice were treated (QD) until day 43 and the graph expresses mean tumour volume [mm3] for the different cohorts.
# FIG. 4 reports in vivo anti-tumor activity of a combination of R07276389 at 60 mpk or of encorafenib at 24 mpk, in each instance with 20 mpk of cetuximab on LS411N xenograft tumors in BALB/c Nude mice (10 mice/cohort), according to some embodiments. […]
# HT29 xenograft tumors = experiment: in vivo anti-tumor activity on HT29 xenograft tumors (BRAF V600E colorectal model); parameters: species or system BALB/c Nude mice; details: monotherapy PO QD, 140 mpk, 60 mpk or 30 mpk; compared with encorafenib 24 mpk; FIG. 6
# Text: as §1
# FIG. […] Mice were, for example, treated (QD) until day 43 and the graph expresses mean tumour volume [mm3] for the different cohorts.
# as §2, with “FIG. 7” for “FIG. 3”, “on HT29” for “on LS411N”
# as §2, with “FIG. 8” for “FIG. 3”, “at 60” for “at 140”, “on HT29” for “on LS411N”, “cohorts. […]” for “cohorts.”
smiles,measurement,setting,value
"Cn1cnc2ccc(Oc3c(F)ccc(NS(=O)(=O)N4CC[C@@H](F)C4)c3C#N)cc2c1=O [Compound R07276389, (3R)-N-[2-cyano-4-fluoro-3-(3-methyl-4-oxo-quinazolin-6-yl)oxy-phenyl]-3-fluoro-pyrrolidine-1-sulfonamide]",tumour growth inhibition,LS411N xenograft tumors,dose-dependent tumour growth inhibition that was significantly higher when compared with encorafenib
same,tumour growth inhibition,HT29 xenograft tumors,dose-dependent tumour growth inhibition that was significantly higher when compared with encorafenib
